Test results from PubChem BioAssay (NCI).
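Dose response: 5 concentrations. Exposure: 48 h. Format: 96-well plates. Endpoint: linear interpolation; highest concentration if not reached. GI50 is the concentration that inhibits growth by half. TGI: concentration producing complete growth inhibition.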

Assays:
Assay in all cases: NCI tumour cell line growth inhibition, 48 h
786-0 renal = tested on: 786-0 renal
A498 renal = tested on: A498 renal
A549 NSCLC = tested on: A549 NSCLC
ACHN renal = tested on: ACHN renal
CAKI-1 renal = tested on: CAKI-1 renal
CCRF-CEM leukemia = tested on: CCRF-CEM leukemia
COLO 205 colon = tested on: COLO 205 colon
DLD-1 colon = tested on: DLD-1 colon
DMS 114 small cell lung = tested on: DMS 114 small cell lung
DMS 273 small cell lung = tested on: DMS 273 small cell lung
EKVX NSCLC = tested on: EKVX NSCLC
HCC-2998 colon = tested on: HCC-2998 colon
HCT-116 colon = tested on: HCT-116 colon
HCT-15 colon = tested on: HCT-15 colon
HOP-18 NSCLC = tested on: HOP-18 NSCLC
HOP-62 NSCLC = tested on: HOP-62 NSCLC
HOP-92 NSCLC = tested on: HOP-92 NSCLC
HT29 colon = tested on: HT29 colon
IGROV1 ovarian = tested on: IGROV1 ovarian
K-562 leukemia = tested on: K-562 leukemia
KM12 colon = tested on: KM12 colon
KM20L2 colon = tested on: KM20L2 colon
LOX IMVI melanoma = tested on: LOX IMVI melanoma
LXFL 529 NSCLC = tested on: LXFL 529 NSCLC
M14 melanoma = tested on: M14 melanoma
M19-MEL melanoma = tested on: M19-MEL melanoma
MALME-3M melanoma = tested on: MALME-3M melanoma
MOLT-4 leukemia = tested on: MOLT-4 leukemia
NCI-H226 lung = tested on: NCI-H226 lung
NCI-H23 lung = tested on: NCI-H23 lung
NCI-H460 lung = tested on: NCI-H460 lung
NCI-H522 lung = tested on: NCI-H522 lung
OVCAR-3 ovarian = tested on: OVCAR-3 ovarian
OVCAR-4 ovarian = tested on: OVCAR-4 ovarian
OVCAR-5 ovarian = tested on: OVCAR-5 ovarian
OVCAR-8 ovarian = tested on: OVCAR-8 ovarian
RPMI-8226 leukemia = tested on: RPMI-8226 leukemia
RXF 393 renal = tested on: RXF 393 renal
RXF-631 renal = tested on: RXF-631 renal
SF-268 CNS = tested on: SF-268 CNS
SF-539 CNS = tested on: SF-539 CNS
SK-MEL-2 melanoma = tested on: SK-MEL-2 melanoma
SK-MEL-28 melanoma = tested on: SK-MEL-28 melanoma
SK-MEL-5 melanoma = tested on: SK-MEL-5 melanoma
SK-OV-3 ovarian = tested on: SK-OV-3 ovarian
SN12C renal = tested on: SN12C renal
SNB-19 CNS = tested on: SNB-19 CNS
SNB-75 CNS = tested on: SNB-75 CNS
SNB-78 CNS = tested on: SNB-78 CNS
SW-620 colon = tested on: SW-620 colon
TK-10 renal = tested on: TK-10 renal
U251 CNS = tested on: U251 CNS
UACC-257 melanoma = tested on: UACC-257 melanoma
UACC-62 melanoma = tested on: UACC-62 melanoma
UO-31 renal = tested on: UO-31 renal
XF 498 CNS = tested on: XF 498 CNS
HL-60(TB) leukemia = tested on: HL-60(TB) leukemia
MCF7 breast = tested on: MCF7 breast
NCI/ADR-RES ovarian = tested on: NCI/ADR-RES ovarian
P388 leukemia = tested on: P388 leukemia
P388/ADR leukemia = tested on: P388/ADR leukemia
SF-295 CNS = tested on: SF-295 CNS
SN12K1 renal = tested on: SN12K1 renal

## CCOC(=O)Cc1nc2ccc3c(c2[nH]c1=O)C(=O)c1ccccc1C3=O
786-0 renal
  TGI: > 100 µM
A498 renal
  TGI: > 100 µM
A549 NSCLC
  TGI: > 100 µM
ACHN renal
  TGI: > 100 µM
CAKI-1 renal
  TGI: > 100 µM
CCRF-CEM leukemia
  TGI: > 100 µM
COLO 205 colon
  TGI: > 100 µM
DLD-1 colon
  TGI: > 100 µM
DMS 114 small cell lung
  TGI: > 100 µM
DMS 273 small cell lung
  TGI: > 100 µM
EKVX NSCLC
  TGI: 28.5 µM
HCC-2998 colon
  TGI: > 100 µM
HCT-116 colon
  TGI: > 100 µM
HCT-15 colon
  TGI: > 100 µM
HOP-18 NSCLC
  TGI: 91.6 µM
HOP-62 NSCLC
  TGI: > 100 µM
HOP-92 NSCLC
  TGI: > 100 µM
HT29 colon
  TGI: > 100 µM
IGROV1 ovarian
  TGI: > 100 µM
K-562 leukemia
  TGI: > 100 µM
KM12 colon
  TGI: > 100 µM
KM20L2 colon
  TGI: > 100 µM
LOX IMVI melanoma
  TGI: > 100 µM
LXFL 529 NSCLC
  TGI: > 100 µM
M14 melanoma
  TGI: > 100 µM
M19-MEL melanoma
  TGI: > 100 µM
MALME-3M melanoma
  TGI: > 100 µM
MOLT-4 leukemia
  TGI: 54.2 µM
NCI-H226 lung
  TGI: > 100 µM
NCI-H23 lung
  TGI: > 100 µM
NCI-H460 lung
  TGI: > 100 µM
NCI-H522 lung
  TGI: > 100 µM
OVCAR-3 ovarian
  TGI: > 100 µM
OVCAR-4 ovarian
  TGI: > 100 µM
OVCAR-5 ovarian
  TGI: > 100 µM
OVCAR-8 ovarian
  TGI: > 100 µM
RPMI-8226 leukemia
  TGI: > 100 µM
RXF 393 renal
  TGI: 63.1 µM
RXF-631 renal
  TGI: > 100 µM
SF-268 CNS
  TGI: > 100 µM
SF-539 CNS
  TGI: > 100 µM
SK-MEL-2 melanoma
  TGI: > 100 µM
SK-MEL-28 melanoma
  TGI: > 100 µM
SK-MEL-5 melanoma
  TGI: > 100 µM
SK-OV-3 ovarian
  TGI: > 100 µM
SN12C renal
  TGI: > 100 µM
SNB-19 CNS
  TGI: > 100 µM
SNB-75 CNS
  TGI: > 100 µM
SNB-78 CNS
  TGI: > 100 µM
SW-620 colon
  TGI: > 100 µM
TK-10 renal
  TGI: > 100 µM
U251 CNS
  TGI: > 100 µM
UACC-257 melanoma
  TGI: > 100 µM
UACC-62 melanoma
  TGI: > 100 µM
UO-31 renal
  TGI: > 100 µM
XF 498 CNS
  TGI: > 100 µM

## Cc1cc([NH-])c([NH-])cc1C.[Cl][Pt+2][Cl]
A498 renal
  GI50: 33.4 µM
  TGI: > 87.6 µM
A549 NSCLC
  GI50: 49 µM
  TGI: > 100 µM
CAKI-1 renal
  GI50: 12 µM
  TGI: 27.6 µM
CCRF-CEM leukemia
  GI50: 1.95 µM
  TGI: 61.5 µM
COLO 205 colon
  GI50: 14.8 µM
  TGI: 34.9 µM
DLD-1 colon
  GI50: 8 µM
  TGI: 28.9 µM
DMS 114 small cell lung
  GI50: 8.09 µM
  TGI: 32.3 µM
EKVX NSCLC
  GI50: 19.7 µM
  TGI: 46.7 µM
HCC-2998 colon
  GI50: > 44.8 µM
  TGI: 99.1 µM
HCT-116 colon
  GI50: 14.2 µM
  TGI: 32.9 µM
HCT-15 colon
  GI50: 10.9 µM
  TGI: 32.3 µM
HL-60(TB) leukemia
  GI50: 17 µM
  TGI: 75.4 µM
HOP-18 NSCLC
  GI50: > 82 µM
  TGI: > 100 µM
HOP-62 NSCLC
  GI50: > 42.8 µM
  TGI: > 77 µM
HOP-92 NSCLC
  GI50: 16.2 µM
  TGI: 40.7 µM
HT29 colon
  GI50: 16.6 µM
  TGI: 40 µM
IGROV1 ovarian
  GI50: 15.2 µM
  TGI: 45.4 µM
K-562 leukemia
  TGI: > 41.5 µM
KM12 colon
  GI50: 24.5 µM
  TGI: > 100 µM
KM20L2 colon
  GI50: 20.2 µM
  TGI: > 81.9 µM
LOX IMVI melanoma
  GI50: 7.9 µM
  TGI: 17.6 µM
M19-MEL melanoma
  GI50: 8.79 µM
  TGI: 31.2 µM
MALME-3M melanoma
  GI50: 18 µM
  TGI: 36.6 µM
MCF7 breast
  GI50: 7.37 µM
  TGI: 25.2 µM
MOLT-4 leukemia
  GI50: 5.07 µM
  TGI: 41.6 µM
NCI-H226 lung
  GI50: 13.5 µM
  TGI: 64 µM
NCI-H23 lung
  GI50: 14.2 µM
  TGI: 37 µM
NCI-H460 lung
  GI50: 4.97 µM
  TGI: > 43.8 µM
NCI-H522 lung
  GI50: 7.39 µM
  TGI: 24.5 µM
NCI/ADR-RES ovarian
  GI50: 16.3 µM
  TGI: 42.7 µM
OVCAR-3 ovarian
  GI50: 17.9 µM
  TGI: 33.6 µM
OVCAR-4 ovarian
  GI50: 16.9 µM
  TGI: 31.7 µM
OVCAR-5 ovarian
  GI50: > 59.8 µM
  TGI: > 83.5 µM
OVCAR-8 ovarian
  GI50: 16.8 µM
  TGI: > 55.5 µM
P388 leukemia
  GI50: 2.42 µM
  TGI: 10.2 µM
P388/ADR leukemia
  GI50: 2.36 µM
  TGI: 6.97 µM
RPMI-8226 leukemia
  GI50: 9.49 µM
  TGI: 60.2 µM
RXF 393 renal
  GI50: 16.3 µM
  TGI: 31.1 µM
SF-268 CNS
  GI50: 6.27 µM
  TGI: 34.6 µM
SF-295 CNS
  GI50: 3.36 µM
  TGI: 16.1 µM
SF-539 CNS
  GI50: 8.5 µM
  TGI: > 31.6 µM
SK-MEL-28 melanoma
  GI50: 16.7 µM
  TGI: 39.5 µM
SK-MEL-5 melanoma
  GI50: 9.48 µM
  TGI: 25.3 µM
SK-OV-3 ovarian
  GI50: > 96.8 µM
  TGI: > 100 µM
SN12C renal
  GI50: 8.13 µM
  TGI: 24.6 µM
SN12K1 renal
  GI50: 13.5 µM
  TGI: 32 µM
SNB-19 CNS
  GI50: 10.5 µM
  TGI: > 100 µM
SNB-75 CNS
  GI50: 39.2 µM
  TGI: > 100 µM
SNB-78 CNS
  GI50: 26.5 µM
  TGI: > 96 µM
SW-620 colon
  GI50: 5.06 µM
  TGI: 27 µM
U251 CNS
  GI50: 5.24 µM
  TGI: 17 µM
UACC-257 melanoma
  GI50: 22.4 µM
  TGI: > 67.2 µM
UACC-62 melanoma
  GI50: 8.88 µM
  TGI: 27.3 µM
UO-31 renal
  GI50: > 77.4 µM
  TGI: > 100 µM
XF 498 CNS
  GI50: 19.7 µM
  TGI: 46.4 µM
